The subject of one data set is HIV-1LAI. Nature of the data set: HIV-1LAI replication reverse transcriptase assay in primary PBM cells. It counts as cell-based, human immunodeficiency virus type 1. As to the method:
(§1) The cytotoxicity and human immunodeficiency virus type 1 (HIV-1) strain LAI replication assays were performed in freshly explanted primary human peripheral blood mononuclear cells (PBM cells) according to published procedures. The assays were conducted at least in triplicate and treated statistically (if possible). HIV-1LAI (= HIV-1BRU = LAV-1) was assayed in primary human peripheral blood lymphocyte (PBL) cells in the presence of a drug being evaluated. The parameter for antiviral activity was a reduction in reverse transcriptase (RT) activity in the cell supernatant after Triton X–100-mediated lysis of released virions, as measured using [5α-^3H]dTTP (5α-tritiated thymidine 5′-triphosphate) incorporation into poly(rA)•poly(dT) directed by the primed RNA template poly(rA)•oligo(dT). […] The detailed assay methodology was reported by Schinazi et al. as based on an older assay system of Spira et al.. The experiments were conducted in triplicate and treated statistically using regression curve analysis (r^2 coefficient of determination). The RT inhibitor AZT (zidovudine, 3′-azido-3′-deoxythymidine; RETROVIR™) served as a positive control. Cytotoxicity on PBL and the other cells (CCRF−CEM, Vero) exerted by the test compounds was determined as described by Stuyver et al. by application of the CellTiter 96® AQueous One Solution Cell Proliferation Assay (Promega Corp., Madison, WI, USA). Briefly, the phenazine ethosulfate (PES)-coupled reduction of the tetrazolium salt 3-(4,5-dimethylthiazol-2-yl)-5-(3-carboxymethoxyphenyl)-2-(4-sulfophenyl)-2H-tetrazolium (MTS) to a purple, water-soluble formazan by living, undamaged cells was measured.

Data set [1] can be described thus: Cytotoxicity (CellTiter 96 AQueous One, MTS). Type of data set: cell-based. Conditions: human; PBM cells. As for the experimental part: (§2) The cytotoxicity and human immunodeficiency virus type 1 (HIV-1) strain LAI replication assays were performed in freshly explanted primary human peripheral blood mononuclear cells (PBM cells) according to published procedures. The assays were conducted at least in triplicate and treated statistically (if possible). HIV-1LAI (= HIV-1BRU = LAV-1) was assayed in primary human peripheral blood lymphocyte (PBL) cells in the presence of a drug being evaluated. The parameter for antiviral activity was a reduction in reverse transcriptase (RT) activity in the cell supernatant after Triton X–100-mediated lysis of released virions, as measured using [5α-^3H]dTTP (5α-tritiated thymidine 5′-triphosphate) incorporation into poly(rA)•poly(dT) directed by the primed RNA template poly(rA)•oligo(dT). […] Cytotoxicity on PBL and the other cells (CCRF−CEM, Vero) exerted by the test compounds was determined as described by Stuyver et al. by application of the CellTiter 96® AQueous One Solution Cell Proliferation Assay (Promega Corp., Madison, WI, USA). Briefly, the phenazine ethosulfate (PES)-coupled reduction of the tetrazolium salt 3-(4,5-dimethylthiazol-2-yl)-5-(3-carboxymethoxyphenyl)-2-(4-sulfophenyl)-2H-tetrazolium (MTS) to a purple, water-soluble formazan by living, undamaged cells was measured.

Data set [2] in a line: Cytotoxicity (CellTiter 96 AQueous One, MTS). Type of data set: cell-based, human. Conditions: human; CCRF−CEM cells. As to the method: as §1
The nature of data set [3]: Cytotoxicity (CellTiter 96 AQueous One, MTS). Conditions: African green monkey (Chlorocebus aethiops), Vero cells. Type of data set: cell-based, African green monkey (grivet) Chlorocebus aethiops. As to the method: as §2

For `Cc1cn([C@H]2C[C@H](N=[N+]=[N-])[C@@H](CO)O2)c(=O)[nH]c1=O` [AZT, 3′-azido-3′-deoxythymidine, reference compound], the EC50 (usually the concentration giving half of the maximal effect) in the data set on HIV-1LAI (Human immunodeficiency virus 1, PBMC, primary human PBM cells, reverse transcriptase activity in supernatant, read-out: Anti-HIV-1LAI activity EC50) came to 0.0044 ± 0.0018 µM. In addition, the EC90 (commonly the concentration at which the effect reaches the 90% level) in the data set on HIV-1LAI (Human immunodeficiency virus 1, PBMC, primary human PBM cells, reverse transcriptase activity in supernatant, read-out: Anti-HIV-1LAI activity EC90) is 0.031 ± 0.015 µM. In addition, in the data set on HIV-1LAI (PBM cells), the “SI50, selectivity index CC50/EC50” value is >22,727. Further, the CC50 (usually the concentration giving 50% cytotoxicity) in data set [1] is above 100 µM; in data set [2], 14.3 µM; in data set [3] it was 56 µM.

(Values after paper PMC10892984, “Novel Antineoplastic Inducers of Mitochondrial Apoptosis in Human Cancer Cells” (Molecules, 2024).)
